Assay [1] deals with T1, proteinase-activated receptor 1 (PAR1) (Homo sapiens, UniProt P25116).
T1 construct: gene F2R; stably expressed in HEK293
T1 sequence (P25116 1-425): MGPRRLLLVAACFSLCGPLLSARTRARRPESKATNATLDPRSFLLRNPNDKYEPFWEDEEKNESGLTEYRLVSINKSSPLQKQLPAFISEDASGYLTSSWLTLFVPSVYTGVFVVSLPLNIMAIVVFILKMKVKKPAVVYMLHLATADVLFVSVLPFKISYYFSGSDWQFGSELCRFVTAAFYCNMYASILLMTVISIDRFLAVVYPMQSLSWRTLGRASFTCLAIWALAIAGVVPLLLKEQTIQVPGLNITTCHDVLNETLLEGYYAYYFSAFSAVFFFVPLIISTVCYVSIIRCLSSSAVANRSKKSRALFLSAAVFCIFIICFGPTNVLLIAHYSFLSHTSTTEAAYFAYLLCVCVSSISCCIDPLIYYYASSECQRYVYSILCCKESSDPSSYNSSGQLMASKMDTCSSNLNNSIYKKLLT
The assay can be described thus: cell-based. Also noted: species or system HEK293; calcium mobilization assay in HEK293 cells stably expressing the human GPCR, agonist response. On the procedure:
To acquire the antagonist dose response, we tested the inhibitory effects of Sal A at different concentrations in the HEK293/ETAR cell line with 20 nM ET-1 stimulating. […] To omit a potential false positive, the cytotoxicity was tested in the HEK293/ETAR cell line by ATP CellTiter-Glo assay. In brief, Sal A was incubated in HEK293/ETAR cells for 30 min before luminescence signal measurement. […] The selectivity of Sal A was further assessed by calcium influx assay on 5 GPCRs. […] All cell lines were developed by standard procedures. Sal A was tested at a final concentration of 10 µM when cells were challenged with their selective agonists for antagonist identification. The selective antagonists of specific cell lines were used as positive control (Table S1). The HEK293 cell line was set up as the naïve group, and cells were challenged with 10 µM ATP as an agonist. […] The Gαq pathway is involved in ETAR activation, which increases intracellular Ca^2+. Based on this characteristic, a cell-based calcium mobilization assay has been used to study the function of GPCR and Ca^2+-permeable ion channels by measuring the changes of intracellular free Ca^2+ levels. In our previous study, recombinant ETAR in HEK293 cells was developed according to standard procedures. The utility of the cell line was validated using ETAR agonist (ET-1) and antagonist (BQ-123). […]

Assay [2] concerns the target T2, endothelin A receptor (ETAR) (Homo sapiens, UniProt P25101).
T2 construct: gene EDNRA
T2 sequence (P25101 21-427): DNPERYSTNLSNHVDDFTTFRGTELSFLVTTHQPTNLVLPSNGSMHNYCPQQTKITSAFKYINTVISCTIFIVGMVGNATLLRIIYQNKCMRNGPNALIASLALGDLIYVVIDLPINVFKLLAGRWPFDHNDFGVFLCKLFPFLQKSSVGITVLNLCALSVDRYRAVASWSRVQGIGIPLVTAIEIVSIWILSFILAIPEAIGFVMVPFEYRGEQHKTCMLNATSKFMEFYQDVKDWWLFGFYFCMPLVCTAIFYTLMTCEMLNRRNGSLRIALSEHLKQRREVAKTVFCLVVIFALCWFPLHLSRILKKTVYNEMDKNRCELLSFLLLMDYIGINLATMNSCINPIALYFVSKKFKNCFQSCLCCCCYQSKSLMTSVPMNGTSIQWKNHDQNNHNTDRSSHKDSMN
As to the kind of experiment: Calcium mobilization antagonist assay in HEK293/ETAR cells evoked by […] ET-1 (cell line validation). Type of assay: cell-based. Background: A change in cytosolic calcium serves as a functional read-out for many receptors and channels.

For assay [3], the target named is T2, endothelin A receptor (ETAR). The assay can be described thus: Calcium mobilization (Fluo-4) antagonist assay in HEK293/ETAR cells evoked by […] ET-1; selective over ETB, A1, AT1 and PAR1 cell lines. The format is cell-based.

Where a SMILES comes first, the peptide text is derived from it. [ ]: non-standard residue; d: D form.

The term EC50 denotes the concentration that produces a half-maximal response. Take `CC(C)C[C@H](NC(=O)[C@H](CC(C)C)NC(=O)[C@H](Cc1ccccc1)NC(=O)[C@@H](N)CO)C(=O)N[C@@H](CCCN=C(N)N)C(=O)N[C@@H](CC(N)=O)C(=O)O` [TRAP-6]: the EC50 in assay [1] came out at 0.89 µM.

For orientation: IC50 means the point on the concentration scale where inhibition reaches its midpoint. Turning to `CC(C)C[C@@H]1NC(=O)[C@@H](C(C)C)NC(=O)[C@@H]2CCCN2C(=O)[C@@H](CC(=O)O)NC(=O)[C@@H](Cc2c[nH]c3ccccc23)NC1=O` [BQ-123] (cyclo(L[dW][dD]P[dV])), the IC50 in assay [2] stood at 0.0001 µM.

On to `O=C(/C=C/c1ccc(O)c(O)c1/C=C/c1ccc(O)c(O)c1)O[C@H](Cc1ccc(O)c(O)c1)C(=O)O` [Sal A, Salvianolic acid A], for which the 50% inhibitory concentration (IC50) in assay [3] is 5.7 µM.

The values are drawn from PMC5000642 (International Journal of Molecular Sciences, 2016).
